Source: patent US5185320A, “O^56 -alkyl derivatives of aglycone and pseudo aglycones of teicoplanin” (Gruppo Lepetit S.p.A., priority 1989, dated 1993)

Experiments:
Format in all cases: cell-based
Conditions in all cases: inoculum about 10^4 CFU/ml, 18-24 h at 37° C.
Strep. mitis L 796 = assay: MIC, standard dilution test, Strep. mitis L 796
Procedure: (§1) ISOSENSITEST broth (Oxoid) and TOLLD-HEWITT broth (Difco) are used for growing staphylococci and streptococci, respectively. Broth cultures are diluted so that the final inoculum is about 10^4 colony forming units/ml (CFU/ml).

[1] = test system: Strep. faecalis ATCC 7080; assay: MIC, standard dilution test, Strep. faecalis ATCC 7080
Procedure: as §1

[2] = test system: Staph. epidermidis ATCC 12228; assay: MIC, standard dilution test, Staph. epidermidis ATCC 12228
Procedure: as §1

[3] = test system: Escherichia coli SKF 12140; assay: MIC, standard dilution test, Escherichia coli SKF 12140
Procedure: as §1

[4] = test system: Haemophilus influenzae ATCC 19418; assay: MIC, standard dilution test, Haemophilus influenzae ATCC 19418
Procedure: as §1

[5] = test system: Pseudomonas aeruginosa ATCC 10145; assay: MIC, standard dilution test, Pseudomonas aeruginosa ATCC 10145
Procedure: as §1

Staph. aureus Tour L 165 = assay: MIC, standard dilution test, Staph. aureus Tour L 165
Procedure: as §1

Strep. pneumoniae UC41 = assay: MIC, standard dilution test, Strep. pneumoniae UC41
Procedure: as §1

Strep. pyogenes C 203 = assay: MIC, standard dilution test, Strep. pyogenes C 203
Procedure: as §1

[6] = test system: Staph. haemolyticus L 602; assay: MIC, standard dilution test, Staph. haemolyticus L 602
Procedure: as §1

[7] = test system: Neisseria gonorrhoeae ISM68/126; assay: MIC, standard dilution test, Neisseria gonorrhoeae ISM68/126
Procedure: as §1

[8] = test system: Proteus vulgaris ATCC 881; assay: MIC, standard dilution test, Proteus vulgaris ATCC 881
Procedure: as §1

Compound	Minimal inhibitory concentration (MIC) (Strep. mitis L 796)	Minimal inhibitory concentration (MIC) [1]	Minimal inhibitory concentration (MIC) [2]	Minimal inhibitory concentration (MIC) [3]	Minimal inhibitory concentration (MIC) [4]	Minimal inhibitory concentration (MIC) [5]	Minimal inhibitory concentration (MIC) (Staph. aureus Tour L 165)	Minimal inhibitory concentration (MIC) (Strep. pneumoniae UC41)	Minimal inhibitory concentration (MIC) (Strep. pyogenes C 203)	Minimal inhibitory concentration (MIC) [6]	Minimal inhibitory concentration (MIC) [7]	Minimal inhibitory concentration (MIC) [8]
COC(=O)C1NC(=O)C2NC(=O)C(NC(=O)C3NC(=O)C4NC(=O)C(Cc5ccc(c(Cl)c5)Oc5cc3cc(c5OC(CCO)C(=O)NCCN)Oc3ccc(cc3Cl)C2O)NC(=O)C(N)c2ccc(O)c(c2)Oc2cc(O)cc4c2)c2ccc(O)c(c2)-c2c(O)cc(O)cc21.Cl (stereo not drawn) [Compound 4, O^56-[1-[[2-aminoethylamino]carbonyl]3-hydroxypropyl]deglucoteicoplanin methyl ester hydrochloride]	0.125	0.25	0.125	16	128	64	0.125	0.25	0.063	0.5	64	128
COC(=O)C1NC(=O)C2NC(=O)C(NC(=O)C3NC(=O)C4NC(=O)C(Cc5ccc(c(Cl)c5)Oc5cc3cc(c5OCCCl)Oc3ccc(cc3Cl)C2O)NC(=O)C(N)c2ccc(O)c(c2)Oc2cc(O)cc4c2)c2ccc(O)c(c2)-c2c(O)cc(O)cc21 (stereo not drawn) [Compound 7, O^56-(2-chloroethyl) deglucoteicoplanin methyl ester]	0.25	2	0.5	> 128	64	> 128	0.125	0.125	0.125	1	> 128	> 128
COC(=O)C1NC(=O)C2NC(=O)C(NC(=O)C3NC(=O)C4NC(=O)C(Cc5ccc(c(Cl)c5)Oc5cc3cc(c5OCCO)Oc3ccc(cc3Cl)C2O)NC(=O)C(N)c2ccc(O)c(c2)Oc2cc(O)cc4c2)c2ccc(O)c(c2)-c2c(O)cc(O)cc21 (stereo not drawn) [Compound 8, O^56-(2-hydroxyethyl) deglucoteicoplanin methyl ester]	0.125	0.125	0.125	32	64	> 128	0.125	0.125	0.063	2	32	> 128
CNC(=O)C1NC(=O)C2NC(=O)C(NC(=O)C3NC(=O)C4NC(=O)C(Cc5ccc(c(Cl)c5)Oc5cc3cc(c5OCCCCN)Oc3ccc(cc3Cl)C2O)NC(=O)C(N)c2ccc(O)c(c2)Oc2cc(O)cc4c2)c2ccc(O)c(c2)-c2c(O)cc(O)cc21 (stereo not drawn) [Compound 9, O^56-(4-aminobutyl)-deglucoteicoplanin methylamide]	0.125	0.125	0.125	8	64	64	0.25	0.125	0.063	0.25	64	32
COC(=O)C1NC(=O)C2NC(=O)C(NC(=O)C3NC(=O)C4NC(=O)C(Cc5ccc(c(Cl)c5)Oc5cc3cc(c5OCCCCN)Oc3ccc(cc3Cl)C2O[C@@H]2O[C@H](CO)[C@@H](O)[C@H](O)[C@H]2NC(C)=O)NC(=O)C(N)c2ccc(O)c(c2)Oc2cc(O)cc4c2)c2ccc(O)c(c2)-c2c(O[C@H]3O[C@H](CO)[C@@H](O)[C@H](O)[C@@H]3O)cc(O)cc21 (stereo partly drawn) [Compound 10, O^56-(4-aminobutyl)teicoplanin pseudoaglycone methyl ester]	1	4	4	> 128	> 128	> 128	2	1	0.125	16	> 128	> 128
COC(=O)C1NC(=O)C2NC(=O)C(NC(=O)C3NC(=O)C4NC(=O)C(Cc5ccc(c(Cl)c5)Oc5cc3cc(c5OCCBr)Oc3ccc(cc3Cl)C2O)NC(=O)C(N)c2ccc(O)c(c2)Oc2cc(O)cc4c2)c2ccc(O)c(c2)-c2c(O)cc(O)cc21 (stereo not drawn) [Compound 11, O^56-(2-bromoethyl)deglucoteicoplanin methyl ester]	0.25	1	0.125	64	64	> 128	0.5	0.25	0.125	2	> 128	> 128
N#CCOC(=O)C1NC(=O)C2NC(=O)C(NC(=O)C3NC(=O)C4NC(=O)C(Cc5ccc(c(Cl)c5)Oc5cc3cc(c5OCC#N)Oc3ccc(cc3Cl)C2O)NC(=O)C(N)c2ccc(O)c(c2)Oc2cc(O)cc4c2)c2ccc(O)c(c2)-c2c(O)cc(O)cc21.O=C(O)C(F)(F)F (stereo not drawn) [Compound 12, O^56 -(cyanomethyl)deglucoteicoplanin cyanomethyl ester trifluoroacetate salt]	0.125	1	0.063	> 128	64	> 128	0.125	0.125	0.125	1	> 128	> 128
